The text below walks through data of US9873667B2, “Arylsulfanyl compounds and compositions for delivering active agents” (EMISPHERE TECHNOLOGIES INC., priority 2006, dated 2018).

One test relates to Blood glucose levels. The test can be described thus: Oral delivery of insulin with delivery agent compound; blood glucose by glucometer. Type of test: in vivo, male Sprague-Dawley rats. The following applies: insulin titration; Delivery Agent 200 mg/kg; Dose of Insulin 0.00 mg/kg. The method, then: Insulin stock solution (15 mg/ml) (Human zinc insulin, Calbiochem-Novabiochem Corp., La Jolla, Calif.) was prepared with deionized water. Oral dosing compositions containing 200 mg/kg of delivery agent compound and 0.5 mg/kg of insulin in aqueous solution were prepared with the delivery agent compound shown in Table 1 below. Either the sodium salt of the delivery agent compound was used or the free acid was converted to the sodium salt with one equivalent of sodium hydroxide.
The dosing solution was administered to fasted male Sprague-Dawley rats by oral gavage with an average weight of about 225-250 grams. Blood glucose levels were then determined by glucometer (One Touch Ultra®, LifeScan, Inc.) and compared to vehicle control (1 ml/kg of water). Samples were collected prior to dosing (time 0) and at 15, 30, 45 and 60 minutes after dosing. The % glucose reduction values in Table 1 are values found at the C minimum, and are an average % reduction with respect to the number of times the experiment was run for each delivery agent.
0.5 mg/kg of Insulin and 25-100 mg/kg of delivery agent compound (particular amount shown in Table 2 below) was administered to male Sprague-Dawley rats with an average weight of about 225-250 grams. The purpose of this test was to ascertain the dose response of the delivery agent compound. Glucose reduction was determined as set forth in connection with the data in Table 1.
Insulin Titrations were performed with Delivery Agent 29 in order to gauge the effect of varying dosages of insulin.
As to `O=C(O)CCCSc1cccc(Cl)c1` [Compound 29, 4-(3-Chloro-phenylsulfanyl)-butyric acid], the “% Glucose Reduction” value is recorded as −6.8%.

The test is the same for the next values; noted with them: insulin titration; Delivery Agent 200 mg/kg; Dose of Insulin 0.25 mg/kg.
Regarding `O=C(O)CCCSc1cccc(Cl)c1` [Compound 29, 4-(3-Chloro-phenylsulfanyl)-butyric acid], the “% Glucose Reduction” value was −31.4%.

Still in this test, the particulars now being: insulin titration; Delivery Agent 200 mg/kg; Dose of Insulin 0.50 mg/kg.
As to `O=C(O)CCCSc1cccc(Cl)c1` [Compound 29, 4-(3-Chloro-phenylsulfanyl)-butyric acid], the “% Glucose Reduction” value is −30.8%.

Still in this test, the particulars now being: oral gavage; 200 mg/kg Delivery Agent Compound; 0.5 mg/kg Insulin; value at C minimum vs vehicle control.
Consider `COc1ccccc1SCCCCCCC(=O)O` [Compound 16, 7-(2-Methoxy-phenylsulfanyl)-heptanoic acid], for which the “% Glucose Reduction” value was −38.9 ± 32.7%.
With `O=C(O)CSc1cccc(F)c1` [Compound 51, (3-Fluoro-phenylsulfanyl)-acetic acid], the “% Glucose Reduction” value is reported as −24.9 ± 6.2%.
The same measure, in the same setting: under `O=C(O)CCSc1ccccc1Cl` [Compound 44, 3-(2-Chloro-phenylsulfanyl)-propionic acid] stands −7.8 ± 16.5%.
`O=C(O)CCCCSc1ccccc1Cl` [Compound 25, 5-(2-Chloro-phenylsulfanyl)-pentanoic acid]: the “% Glucose Reduction” value is given as −16.0 ± 13.4%.
Regarding `COc1cccc(SCCCCCCCC(=O)O)c1` [Compound 22], the “% Glucose Reduction” value is listed as −3.7 ± 9.4%.
On the same count and under the same terms, under `COc1ccccc1SCCCCC(=O)O` [Compound 19, 5-(2-Methoxy-phenylsulfanyl)-pentanoic acid] stands −33.6 ± 32.4%; under `O=C(O)CCCCSc1cccc(Cl)c1` [Compound 24, 5-(3-Chloro-phenylsulfanyl)-pentanoic acid], −10.0 ± 17.7%; under `O=C(O)CCCSc1ccccc1F` [Compound 54, 4-(2-Fluoro-phenylsulfanyl)-butyric acid], −37.4 ± 26.0%.
The same measure, in the same setting: the figure for `O=C(O)CSc1cccc(O)c1` [Compound 46, (3-Hydroxy-phenylsulfanyl)-acetic acid] is 0.3 ± 27.7%.
For the molecule `COc1ccc(SCC(=O)O)cc1` [Compound 13, (4-Methoxy-phenylsulfanyl)-acetic acid], the “% Glucose Reduction” value was −18.2 ± 17.4%.
Same read-out and setting: under `O=C(O)CCCCCSc1cccc(Cl)c1` [Compound 32, 6-(3-Chloro-phenylsulfanyl)-hexanoic acid] stands −15.2 ± 28.9%; under `O=C(O)CSc1ccc(F)cc1` [Compound 55, (4-Fluoro-phenylsulfanyl)-acetic acid], −20.9 ± 17.5%.
Still for that read-out and setting: the figure for `O=C(O)CCCSc1ccc(Cl)c(Cl)c1` [Compound 53, 4-(3,4-dichloro-phenylsulfanyl)-butyric acid] is −14.8 ± 7.0%; for `O=C(O)CCCCCSc1ccc(F)cc1` [Compound 57, 6-(4-Fluoro-phenylsulfanyl)-hexanoic acid] it is −11.0 ± 15.7%; for `O=C(O)CCCSc1cc(Cl)ccc1Cl` [Compound 50, 4-(2,5-dichloro-phenylsulfanyl)-butyric acid] it is −15.8 ± 10.6%.
The same measure, in the same setting: under `O=C(O)CSc1cc(Cl)ccc1Cl` [Compound 40, (2,5-dichloro-phenylsulfanyl)-acetic acid] stands −6.0 ± 17.5%; under `O=C(O)CCSc1cccc(Cl)c1` [Compound 45, 3-(3-Chloro-phenylsulfanyl)-propionic acid], −6.5 ± 21.2%; under `COc1cccc(SCCCCCCCCCC(=O)O)c1` [Compound 20, 10-(3-Methoxy-phenylsulfanyl)-decanoic acid], −33.9 ± 41.8%.
With `O=C(O)CSc1ccc(Cl)c(Cl)c1` [Compound 42, (3,4-dichloro-phenylsulfanyl)-acetic acid], the “% Glucose Reduction” value was −22.1 ± 5.4%.
As to `COc1cccc(SCCCC(=O)O)c1` [Compound 27, 4-(3-Methoxy-phenylsulfanyl)-butyric acid], the “% Glucose Reduction” value is given as −47.6 ± 17.4%.
On the same count and under the same terms, the figure for `COc1cccc(SCCCCCC(=O)O)c1` [Compound 21, 6-(3-Methoxy-phenylsulfanyl)-hexanoic acid] is −19.4 ± 6.6%; for `O=C(O)CCCSc1ccc(F)cc1` [Compound 56] it is −4.5 ± 11.1%.
